Laboratory results taken from patent US20130018109A1, “Skin and hair treatments” (priority 2011, published 2013).

Experiments:
mice = settings: according to published information; cited from earlier work
migraine headaches = assay: Use of linalool shampoo by individuals suffering from migraines; type: in vivo, human; settings: same individual, prescription drug taken before the shampoo use
Source text: One individual who had suffered from migraines for several years and who had taken the prescription drug Prozac® with only limited benefits, started using a commercial product, Ivory Shampoo®, with approximately 1% by volume of linalool added. […] Other commercially available shampoos containing little perfume with approximately 1% by volume of linalool added were substituted for the Ivory Shampoo with linalool and the benefit persisted. Another commercially available shampoo that has been used with about 1% by volume of linalool added is Botanical Nutrients® soyflower shampoo containing: water; extracts of geranium maculatum (geranium), Echinacea angustifolia (coneflower), and lavendula angustifolia (lavender); ammonium lauryl sulfate; decyl glucoside; cocoamide MEA; PPG-5-ceteth-10-phosphatel cocoamidopropyl betaine; fragrance; polyquatemium-7; glycerin; panthenol; hydrolyzed soy protein; isostearamidopropyl morpholine lactate; vitamin E; disodium wheat germamido PEG-2 sulfosuccinate; guar hydroxypropyl ammonium chloride; PEG-150 distearate; PEG-30 castor oil; PEG-12 dimethicone; benzophenone-4; disodium EDTA; diazolidinyl urea; methylparaben; and citric acid. Another shampoo that has been used is Bath & Body Works® Bio balancing shampoo.
When this individual stopped using the commercial shampoos containing about 1% linalool, a migraine headache was experienced. […]

Compound	tumors in mice (mice)	prevention of migraine headaches by prescription drug (migraine headaches)
C=C(C)[C@H]1CC=C(C)CC1 [Limonene]	shown to cause tumors in mice	
CNCCC(Oc1ccc(C(F)(F)F)cc1)c1ccccc1 (centres unmarked) [Prozac]		had not prevented migraine headaches
